Patent US20030199424A1, “Method of treatment and/or prophylaxis” (priority 2002, published 2003)
“Also recorded” adds a separate entry of the source. Where two headings read alike, the source gives them in different places.

What was measured:
[1] = tested on: STZ-diabetic rats; details: given to rats 4 wks after induction of diabetes with STZ (Maxfield et al., 1993); cited from earlier work
[2] = tested on: STZ-diabetic rats; assay: Reversal protocol: AT1 antagonist from 12 wks post-STZ, morphine antinociception; details: tested at 16 wks post-STZ
Method: STZ-diabetic rats (n=18) were allocated to one of three experimental groups. Groups one and two received once-daily oral administration of antihypertensive doses of one of the AT1-antagonists, viz candesartan (2.0 mg/kg/day)or losartan (20 mg/kg/day), commencing at 12 weeks post-STZ administration (day 0). The third group (control STZ-diabetic rats) received no treatment.
(§1) The mean (±SEM) percentage maximum AUC (% Max AUC) was calculated according to the following formula: [formula]
The Mann-Whitney test was used to compare %MAX AUC values between treatment groups. The statistical significance criterion was p<0.05.

[3] = tested on: non-diabetic rats; assay: Opioid-mediated antinociception (Von Frey, % MPE) in non-diabetic control rats; type: in vivo, rat; details: for ED50: Rattus norvegicus
Method: A second group of STZ-diabetic rats received vehicle (DMSO:water 10:90) by oral gavage (protocol-control rats). In the third group, weight-matched, naive, non-diabetic control rats (non-diabetic candesartan control rats) were also treated with candesartan for one wk prior to opioid antinociceptive testing to determine any intrinsic effects of candesartan on baseline pain scores and on opioid-mediated antinociception.
The statistical significance criterion was p<0.05.

[4] = tested on: STZ-diabetic rats; details: cited from earlier work
[5] = tested on: non-diabetic rats; details: control non-diabetic rats; previously determined by Saini (2000); cited from earlier work
[6] = tested on: STZ-diabetic rats; assay: Opioid-mediated antinociception (Von Frey, % MPE) in STZ-diabetic rats; details: for ED50: Rattus norvegicus; for timing of the peak antinociceptive effect: morphine 6.1 mg/kg s.c.; for time to reach peak levels of antinociception: s.c. morphine, high-dose oral candesartan-treated STZ-diabetic rats
Method: In all cases, opioids were administered by a single s.c. injection (100 μL) into the dorsal region at the base of the neck whilst under light CO2/O2 (50:50%) anaesthesia using a 250 μL Hamilton syringe. […] By contrast, the opioid-naïve, weight-matched, non-diabetic candesartan control rats were given high-dose oral candesartan (2 mg/kg/day) for 7 days before opioid testing was initiated.
Immediately prior to administration of s.c. bolus doses of either opioid, baseline paw withdrawal thresholds were quantified using VFFs in an identical manner to the weekly baseline Von Frey monitoring described above. Following s.c. opioid administration, VFF assessments were performed at the following post-dosing times: 15, 30, 45, 60, 90, 120 and 180 min.
The VFF scores for individual rats were converted to the Percentage of the Maximum Possible Antinociceptive Effect (% MPE), according the following formula (Brady & Holtzmann, 1982): [formula]
as §1
ED50 estimation was facilitated by inclusion of the theoretical maximum and minimum % Max AUC values. The Mann-Whitney test was used to compare %MPE AUC ED50 values between treatment groups. The statistical significance criterion was p<0.05.

[7] = biological target: T1, CYP2D6 (Homo sapiens, UniProt P10635); details: humans, CYP2D6-mediated; cited from earlier work
T1 construct: low extent of CYP2D6-mediated O-demethylation of oxycodone to oxymorphone in humans; host or cells: human subjects (in vivo metabolism)
T1 sequence (P10635 whole entry): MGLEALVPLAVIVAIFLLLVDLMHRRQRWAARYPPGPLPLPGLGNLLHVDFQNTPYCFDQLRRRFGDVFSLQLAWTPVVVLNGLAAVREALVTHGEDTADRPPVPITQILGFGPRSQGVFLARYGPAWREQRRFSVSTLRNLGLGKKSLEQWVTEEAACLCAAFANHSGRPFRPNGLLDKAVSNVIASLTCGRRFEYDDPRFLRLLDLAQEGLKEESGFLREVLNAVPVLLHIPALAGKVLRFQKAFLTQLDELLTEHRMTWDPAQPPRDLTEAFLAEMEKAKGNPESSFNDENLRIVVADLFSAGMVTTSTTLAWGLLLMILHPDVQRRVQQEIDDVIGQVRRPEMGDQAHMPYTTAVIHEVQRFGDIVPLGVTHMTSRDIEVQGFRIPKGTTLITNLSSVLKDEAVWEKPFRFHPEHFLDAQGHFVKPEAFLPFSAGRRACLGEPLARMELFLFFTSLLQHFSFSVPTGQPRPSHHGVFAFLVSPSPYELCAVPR

[8] = tested on: STZ-diabetic rats; assay: Von Frey assessment of tactile allodynia (paw withdrawal threshold); type: in vivo, rat
Method: Candesartan treatment was initiated after STZ administration (day 0) but prior to the onset of diabetes. Specifically, candesartan-treated rats received this drug via once-daily oral gavage in one of two dosages: viz a high-dose (2 mg/kg/day) or a low dose (0.5 mg/kg/day). The 2 mg/kg/day dose was chosen on the basis that it is an anti-hypertensive dose both in rats with perfused Ang II-induced hypertension and also in the spontaneously hypertensive rat (SHR) (Nishikawa et al., 1994, Blood Press, Suppl 5: 7-14). The low-dose ([…]) was included to investigate whether a sub-therapeutic dose (in terms of anti-hypertensive activity) of candesartan was efficacious for the treatment of PDN. Once initiated, oral once-daily candesartan was administered every day for 24 wks.
Tactile allodynia, the defining symptom of PDN, manifests as a hypersensitive response to non-noxious stimuli such as touch or light pressure, and was quantified using Von Frey filaments (VFFs). […] However, indirect methods have a questionable correlation with symptomatic severity (Malik et al., 1998, supra; Malik et al., 2001, supra). Therefore direct quantification of symptom severity using VFF assessment was used to obtain clinically relevant end points.
For each antinociceptive testing session, rats were placed in wire mesh metabolic cages (20 cm×20 cm×20 cm) and allowed to acclimatise to the test environment for approximately 10-15 min prior to the commencement of experiments. Calibrated VFFs, delivering a force in the range 2-20 g, were then applied to the plantar surface of the hind-paw to determine the paw withdrawal thresholds defined as the minimum force necessary to elicit a brisk foot withdrawal reflex. Commencing with the VFF delivering the lowest mechanical force, the filament was applied to the plantar surface of the footpad until buckling of the filament was observed. Absence of a response after approximately 3 s prompted application of the next VFF of increasing force to the footpad.
The onset and progression of the development of tactile allodynia in all STZ-diabetic rats were quantified by once weekly VFF paw withdrawal testing. Specifically for each rat, three separate assessments of paw withdrawal thresholds were undertaken, each approximately 5 min apart.

[9] = Body weight, metabolic signs and general health of STZ-diabetic rats; type: in vivo, rat; details: 24 wks post-STZ rats, cessation of chronic candesartan 2.0 mg/kg/day
From the text: Induction of STZ-diabetes produced an initial ≈5-10% reduction in (mean±SEM) body weight from 233 (±1.99) g pre-STZ administration to 218 (±3.28) g at 4 wks post-STZ, followed by a gradual return to the pre-study weight over the ensuing 6-mth study period (FIG. 1).
One rat died 5 wks after the cessation of candesartan therapy.

[10] = oxycodone 2.0 mg/kg s.c., candesartan (0.5 mg/kg/day) treated STZ-diabetic rats, 12 wks post-STZ
[11] = oxycodone 2.0 mg/kg s.c., candesartan (0.5 mg/kg/day) treated STZ-diabetic rats, 21 wks post-STZ
[12] = oxycodone 2.0 mg/kg s.c., candesartan (0.5 mg/kg/day) treated STZ-diabetic rats, 24 wk post-STZ
[13] = oxycodone 2.0 mg/kg s.c., control STZ-diabetic rats, 9 wks post-STZ
[14] = oxycodone 2.0 mg/kg s.c., control STZ-diabetic rats, 12 wks post-STZ
[15] = oxycodone […] s.c., candesartan (0.5 mg/kg/day) treated STZ-diabetic rats, 3 wks post-STZ
[16] = oxycodone […] s.c., candesartan (0.5 mg/kg/day) treated STZ-diabetic rats, 9 wks post-STZ
[17] = oral candesartan 0.5 mg/kg/day, by 22 wks post-STZ
[18] = oral candesartan 2 mg/kg/day once daily, 24 wk post-STZ study period, relative to non-diabetic control rats

## CCc1cc2c(c(OCc3ccc(-c4ccccc4-c4nnn[nH]4)cc3)c1)CCCC2 [ZD 8731]
[1]
  Nerve blood flow (NBF) deficits: significant improvements
  Reduction in nerve conduction velocity (NCV): completely reverses

## CCCCc1nc(Cl)c(CO)n1Cc1ccc(-c2ccccc2-c2nnn[nH]2)cc1 [losartan]
[2]; oral losartan 20 mg/kg/day for 4 wks commencing 12 wks post-STZ
  Effect on morphine's antinociceptive effects (s.c. morphine 6.1 mg/kg): preserved morphine's antinociceptive effects; also recorded: morphine sensitivity was preserved

## CN1CC[C@]23c4c5ccc(O)c4O[C@H]2[C@@H](O)C=C[C@H]3[C@H]1C5 [morphine]
[3]; read-out: ED50 of s.c. morphine, non-diabetic rats on high-dose oral candesartan 2.0 mg/kg/day
  ED50: 2.3 ± 0.3 mg/kg
[3]; sc, read-out: mean (±SEM) ED50 of s.c. morphine, control untreated non-diabetic rats
  ED50: 2.9 mg/kg
[3]; morphine 2.4 mg/kg s.c., control non-diabetic rats
  time to achieve the peak antinociceptive effect: 45 min
[4]; s.c. morphine, control STZ-diabetic rats by 12 wks post-STZ (Smith et al., 2001)
  antinociceptive efficacy: completely abolished
[4]; s.c., STZ-diabetic rats at 3 and 9 wks post-STZ, previously determined by Smith et al. (2001)
  ED50 morphine dose: 6.1 mg/kg
[5]
  ED50 of s.c. morphine (single bolus dose): ~2.4 mg/kg
[6]; 504 h, read-out: mean (±SEM) ED50 of s.c. morphine
  ED50: 2.5 mg/kg
[6]; 1512 h, read-out: mean (±SEM) ED50 of s.c. morphine
  ED50: 2.3 mg/kg
[6]; 2016 h, read-out: mean (±SEM) ED50 of s.c. morphine
  ED50: 2.1 mg/kg
[6]; 4032 h, read-out: mean (±SEM) ED50 of s.c. morphine
  ED50: 2.4 mg/kg
[6]; control STZ-diabetic rats of the present studies, 12 wks post-STZ and beyond
  antinociceptive response evoked by morphine: marked decrease
[6]; morphine 2.4 mg/kg s.c., STZ-diabetic rats 24 wks post-STZ, oral candesartan 2.0 mg/kg/day
  time to achieve the peak antinociceptive effect: 60 min
[6]; control STZ-diabetic rats, 3 wks post-STZ
  timing of the peak antinociceptive effect: approximately 45 min
[6]; control STZ-diabetic rats, 9 wks post-STZ
  timing of the peak antinociceptive effect: 60 min
[6]; 3 wks post-STZ
  time to reach peak levels of antinociception: 45 min
[6]; beyond 12 wks post-STZ
  time to reach peak levels of antinociception: 60 min

## COc1ccc2c3c1O[C@H]1C(=O)CC[C@@]4(O)[C@@H](C2)N(C)CC[C@]314 [oxycodone]
[3]; sc, control untreated non-diabetic rats, read-out: mean (±SEM) ED50 of s.c. oxycodone
  ED50: 1.2 mg/kg
[3]; non-diabetic control rats on high-dose oral candesartan 2.0 mg/kg/day, read-out: ED50 of s.c. oxycodone
  ED50: 1.1 mg/kg
[3]; oxycodone […] s.c., candesartan (2.0 mg/kg/day) treated non-diabetic rats
  Mean (±SEM) % MPE AUC: 155 (±8.5) % MPE.h
[4]; s.c. oxycodone, STZ-diabetic rats over 24 wk study (Smith et al., 2001)
  decrease in potency relative to non-diabetic control rats: 4 fold
[7]
  fraction of each dose O-demethylated to oxymorphone: < 5%
[6]; 504 h, read-out: mean (±SEM) ED50 of s.c. oxycodone
  ED50: 1.4 mg/kg
[6]; 1512 h, read-out: mean (±SEM) ED50 of s.c. oxycodone
  ED50: 1.3 mg/kg
[6]; 4032 h, read-out: mean (±SEM) ED50 of s.c. oxycodone
  ED50: 1.1 mg/kg
[6]; sc, 504 h, read-out: approximate ED50 oxycodone dose
  ED50: ~1.5 mg/kg
[6]; sc, 2016 h, read-out: approximate ED50 oxycodone dose
  ED50: ~2 mg/kg
[6]; sc, 4032 h, read-out: approximate ED50 oxycodone dose
  ED50: ~3.2 mg/kg
[6]; [10]
  Mean (±SEM) % MPE AUC: 116 (±8.2) % MPE.h
  Mean (±SEM) dose normalised % MPE AUC: 67.70 (±4.111) % MPE AUC.h.kg.mg^−1
[6]; [11]
  Mean (±SEM) % MPE AUC: 171 (±8.3) % MPE.h
  Mean (±SEM) dose normalised % MPE AUC: 85.34 (±4.134) % MPE AUC.h.kg.mg^−1
[6]; [12]
  Mean (±SEM) % MPE AUC: 145 (±13.0) % MPE.h
  Mean (±SEM) dose normalised % MPE AUC: 72.45 (±6.527) % MPE AUC.h.kg.mg^−1
[6]; [13]
  Mean (±SEM) % MPE AUC: 162 (±3.2) % MPE.h
  Mean (±SEM) dose normalised % MPE AUC: 80.8 (±1.6) % MPE AUC.h.kg.mg^−1
[6]; [14]
  Mean (±SEM) % MPE AUC: 168 (±5.2) % MPE.h
  Mean (±SEM) dose normalised % MPE AUC: 84.2 (±2.6) % MPE AUC.h.kg.mg^−1
[6]; oxycodone 2.2** mg/kg s.c., candesartan (2.0 mg/kg/day) treated STZ-diabetic rats, 12 wks post-STZ
  Mean (±SEM) % MPE AUC: 158 (±6.9) % MPE.h
[6]; oxycodone […] s.c., STZ-diabetic rats, 4 wks candesartan (2.0 mg/kg/day) re-initiation
  Mean (±SEM) % MPE AUC: 157 (±8.5) % MPE.h
[6]; [15]
  Mean (±SEM) % MPE AUC: 131 (±7.9) % MPE.h
  Mean (±SEM) dose normalised % MPE AUC: 109.5 (±6.549) % MPE AUC.h.kg.mg^−1
[6]; [16]
  Mean (±SEM) % MPE AUC: 122 (±9.1) % MPE.h
  Mean (±SEM) dose normalised % MPE AUC: 102.1 (±7.611) % MPE AUC.h.kg.mg^−1
[6]; oxycodone […] s.c., candesartan (2.0 mg/kg/day) STZ-diabetic rats, 3 wks post-STZ
  decrease in antinociceptive response (%MPE AUC) versus non-diabetic protocol control rats: ≈ 20%
[6]; oxycodone […] s.c., candesartan (2.0 mg/kg/day) treated STZ-diabetic rats, 3 wks post-STZ
  Mean (±SEM) % MPE AUC: 120 (±8.9) % MPE.h
[6]; oxycodone […] s.c., candesartan (2.0 mg/kg/day) treated STZ-diabetic rats, 9 wks post-STZ
  Mean (±SEM) % MPE AUC: 136 (±13.3) % MPE.h
[6]; oxycodone […] s.c., control STZ-diabetic rats, 3 wks post-STZ
  Mean (±SEM) dose normalised % MPE AUC: 115.5 (±3.1) % MPE AUC.h.kg.mg^−1
[6]; oxycodone […] s.c., control STZ-diabetic rats, 24 wks post-STZ
  Mean (±SEM) dose normalised % MPE AUC: 44.1 (±2.4) % MPE AUC.h.kg.mg^−1
[6]; oxycodone […], candesartan (0.5 mg/kg/day) STZ-diabetic rats, 9 wks post-STZ
  decrease in oxycodone potency versus non-diabetic protocol control rats: 20%
[6]; oxycodone, candesartan (0.5 mg/kg/day) STZ-diabetic rats, by 12 wks post-STZ
  decrease in potency versus protocol controls: ~50%
[6]; oxycodone, low-dose candesartan (0.5 mg/kg/day) STZ-diabetic rats, 24 wks post-STZ
  decrease in dose-normalised %MPE AUC versus protocol-control non-diabetic rats: ~1.5 fold

## candesartan
[8]; 24 wks post-STZ on oral candesartan 2.0 mg/kg/day, immediately prior to cessation
  Mean (±SEM) paw withdrawal threshold: 11.9 (±0.2) g
[8]; oral candesartan 0.5 mg/kg/day once daily for 24 wks from STZ administration
  Development of tactile allodynia (Von Frey filaments): only delayed but did not prevent the development of tactile allodynia
[8]; [17]
  Paw withdrawal latencies versus rats given high-dose candesartan: significantly lower
  Paw withdrawal thresholds versus untreated STZ-diabetic control rats: not significantly different
[8]; oral candesartan 2.0 mg/kg/day once daily for 24 wks from STZ administration
  Development of tactile allodynia (Von Frey filaments): completely attenuated the development of tactile allodynia
[8]; oral candesartan 2.0 mg/kg/day, 24 wks post-STZ
  Mean paw withdrawal threshold versus non-diabetic control rodents: not significantly different
[8]; re-initiation of oral candesartan 2.0 mg/kg/day for six wks after six wks cessation
  Paw withdrawal thresholds after re-initiation of treatment: restored the paw withdrawal thresholds
[8]; six wks after cessation of chronic oral candesartan 2.0 mg/kg/day
  Mean (±SEM) paw withdrawal threshold: 6.0 (±0.3) g
[8]; within two wks of re-initiation of oral candesartan 2.0 mg/kg/day
  Mean (±SEM) paw withdrawal threshold: 11.3 ± 0.1 g
[9]
  Physical appearance and health after cessation of treatment: apparent general decline in the physical appearance and health
[6]; oral candesartan 0.5 mg/kg/day once daily, relative to control untreated STZ-diabetic rats
  Effect on loss of morphine potency: attenuated the loss of morphine potency
[6]; [18]
  Effect on temporal loss of morphine potency and efficacy: completely prevented the temporal loss of morphine potency and efficacy
  Effect on temporal loss of oxycodone potency and efficacy: completely prevented the temporal loss of oxycodone potency and efficacy
[2]; oral candesartan 2 mg/kg/day for 4 wks commencing 12 wks post-STZ
  Effect on morphine's antinociceptive effects (s.c. morphine 6.1 mg/kg): preserved morphine's antinociceptive effects; also recorded: morphine sensitivity was preserved
